Measurements reported in patent EP0073997A1, “Substituted 2-amino-3,4-dihydro-pyridine derivatives, process for their preparation and their use in medicines” (BAYER AG, priority 1981, dated 1983).

Each compound was assayed on Wistar-Ratten (assay: Cholesterol load test: liver cholesterol after oral cholesterol load). Details: Dosis 10 mg/kg p.o.; given together with cholesterol in 0,75 % tragacanth suspension; liver cholesterol after 24 h.
Type: in vivo
Experimental: Cholesterol- bzw. Fettbelastungstests wurden an nüchternen männlichen oder weiblichen Wistar-Ratten mit einem Körpergewicht zwischen 130-230 g durchgeführt.
Cholesterol-Belastung: • Cholesterol und die zu prüfende Substanz wurden in 0,75 %iger Traganth-Suspension gleichzeitig oral appliziert. Nach 24 h wurden die Tiere getötet und der Cholesterolgehalt in der Leber bestimmt. Cholesterol wurde nach der Liebermann-Burchard-Methode mit der Testkombination von Boehringer Mannheim bestimmt. Kontrolltiere erhielten ein entsprechendes Volumen Cholesterol-Traganth-Suspension ohne Testsubstanz. Zur Kontrolle des Cholesterol-Anstiegs als Folge der Cholesterol-Belastung wurde einer weiteren Kontrollgruppe Traganth-Suspension ohne Cholesterol oral appliziert.

Q: For “6-Methyl-2-(4-phenylpiperazino)-4,5-bis(2-pyrrolidinomethylphenyl)-3,4-dihydropyridin [Beispiel 18]”, which “Verminderung des Lebercholesterinanstiegs im Vergleich zur Kontrolle nach oraler Cholesterinbelastung in Prozent” value is on record?
A: Its value is 34,1%.

Q: With `Clc1ccc(C2CC(N3CCN(c4ccccc4)CC3)=NC3=C2c2ccccc2CC3)cc1` (stereo not drawn) [Beispiel 1, 4-(4-Chlorphenyl)-2-(4-phenylpiperazino)-3,4,5,6-tetrahydronaphthalino(a)pyridin] as the compound, how does the “Verminderung des Lebercholesterinanstiegs im Vergleich zur Kontrolle nach oraler Cholesterinbelastung in Prozent” value read?
A: The value was 51,7%.

Q: Which “Verminderung des Lebercholesterinanstiegs im Vergleich zur Kontrolle nach oraler Cholesterinbelastung in Prozent” value does the source give for `Clc1ccc(C2=CC(c3ccc(Cl)cc3)CC(N3CCN(c4ccccc4)CC3)=N2)cc1` (stereo not drawn) [Beispiel 8] here?
A: The value was 21,3%.

Q: Which “Verminderung des Lebercholesterinanstiegs im Vergleich zur Kontrolle nach oraler Cholesterinbelastung in Prozent” value does the source give for `CC(=O)OCc1ccc(C2=C(C)N=C(N3CCN(c4ccccc4)CC3)CC2c2ccc(COC(C)=O)cc2)cc1` (stereo not drawn) [Beispiel 9] here?
A: Its value is 17,7%.

Q: Which “Verminderung des Lebercholesterinanstiegs im Vergleich zur Kontrolle nach oraler Cholesterinbelastung in Prozent” value does the source give for `CC1=C(c2cccc(CO)c2)C(c2cccc(CO)c2)CC(N2CCN(c3ccccc3)CC2)=N1` (stereo not drawn) [Beispiel 13] here?
A: Its value is 37,9%.

Q: For `CC1=C(c2ccc(N(C)C)cc2)C(c2ccc(CO)cc2)CC(N2CCN(c3ccccc3)CC2)=N1` (stereo not drawn) [Beispiel 16], which “Verminderung des Lebercholesterinanstiegs im Vergleich zur Kontrolle nach oraler Cholesterinbelastung in Prozent” value is on record?
A: Its value is 36,7%.

Q: For `CC1=C(c2ccccc2)C(c2cccc(CN3CCCC3)c2)CC(N2CCN(c3ccccc3)CC2)=N1` (stereo not drawn) [Beispiel 17, 6-Methyl-5-phenyl-2-(4-phenylpiperazino)-4-(3-pyrro-lidinomethylphenyl)-3,4-dihydropyridin], which “Verminderung des Lebercholesterinanstiegs im Vergleich zur Kontrolle nach oraler Cholesterinbelastung in Prozent” value is on record?
A: The value was 22,9%.

Q: With `CC1=C(c2ccccc2)C(c2cccc(COC(=O)CCCC(=O)O)c2)CC(N2CCN(c3ccccc3)CC2)=N1` (stereo not drawn) [Beispiel 19, 4-(3-(5-Carboxybutyryloxymethyl)-phenyl)-6-methyl-5-phenyl-2-(4-phenylpiperazino)-3,4-dihydropyridin] as the compound, how does the “Verminderung des Lebercholesterinanstiegs im Vergleich zur Kontrolle nach oraler Cholesterinbelastung in Prozent” value read?
A: Its value is 36,3%.

Q: `C=CCC1C(N2CCN(c3ccccc3)CC2)=NC(C)=C(c2ccccc2)C1c1ccccc1` (stereo not drawn) [Beispiel 21] was tested. Which “Verminderung des Lebercholesterinanstiegs im Vergleich zur Kontrolle nach oraler Cholesterinbelastung in Prozent” value did it give?
A: The value was 34,9%.

Q: Which “Verminderung des Lebercholesterinanstiegs im Vergleich zur Kontrolle nach oraler Cholesterinbelastung in Prozent” value does the source give for `COc1ccc(C2=C(C)N=C(N3CCCC3)C(C)C2c2ccc(OC)cc2)cc1` (stereo not drawn) [Beispiel 25] here?
A: Its value is 22,6%.

Q: How did the “Verminderung des Lebercholesterinanstiegs im Vergleich zur Kontrolle nach oraler Cholesterinbelastung in Prozent” value turn out when `CC1=C(c2ccc(N(C)C)cc2)C(c2ccc(Cl)cc2)C(CC(=O)OC(C)(C)C)C(N2CCN(c3ccccc3)CC2)=N1` (stereo not drawn) [Beispiel 29] was run?
A: Its value is 12,0%.

Q: Which “Verminderung des Lebercholesterinanstiegs im Vergleich zur Kontrolle nach oraler Cholesterinbelastung in Prozent” value does the source give for `CC1=C(c2ccccc2)C(c2ccccc2)C(CO)C(N2CCN(c3ccccc3)CC2)=N1` (stereo not drawn) [Beispiel 34] here?
A: The value was 23,9%.
